In test [1] the target is Chk-1 kinase (Homo sapiens (Human), UniProt O14757). Briefly: Chk-1 Kinase Inhibiting Activity (33P-ATP filter assay, CHKtide substrate). Type of test: biochemical. The settings on record: against Chk-1 kinase; read-out: IC50. In outline: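 Full-length N-terminal GST-tagged human Chk-1 from insect cells, 0.5 nM final, with 20 μM peptide substrate and 33P-ATP in HEPES pH 7.5 buffer with 1% DMSO. Reaction ran 120 minutes at room temperature; incorporated radioactivity captured on P81 filters and counted for IC50.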

In test [2] the test system is MIA PaCa-2 cells. Briefly: Gemcitabine Combination Cell Assay (Cell Titer Glo). The settings on record: for pIC50 / IC50: Homo sapiens; for pIC50: Chk1 inhibitor alone, read-out: Chk1 IC50; for pIC50 / 10xLS / 2xLS: MIA PaCa-2 cells, 72 h; for 10xLS: approximate concentration of Chk1 inhibitor that results in a 10-fold reduction in the IC50 of gemcitabine alone; for 2xLS: approximate concentration of Chk1 inhibitor that results in a two-fold reduction in the IC50 of gemcitabine alone; for IC50: MIA PaCa-2, 72 h, read-out: Chk1 IC50 (nM). Type of test: cell-based. In outline: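 MIA PaCa-2 cells were treated 72 h with half-log dilutions of Chk1 inhibitor (top 3000 nM) and gemcitabine (top 100 nM), alone and in full matrix; viability by CellTiter-Glo luminescence. IC50s from four-parameter fit; Chk1 inhibitor concentrations giving two- and ten-fold lowering of gemcitabine IC50 were estimated.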

The structures appear in SMILES notation. pIC50: −log10 of the molar value. Where a name gives a salt, the structure may show the parent alone. Read-outs that look alike come from different tables or passages of the source.

Sequence of Chk-1 kinase (O14757 whole entry): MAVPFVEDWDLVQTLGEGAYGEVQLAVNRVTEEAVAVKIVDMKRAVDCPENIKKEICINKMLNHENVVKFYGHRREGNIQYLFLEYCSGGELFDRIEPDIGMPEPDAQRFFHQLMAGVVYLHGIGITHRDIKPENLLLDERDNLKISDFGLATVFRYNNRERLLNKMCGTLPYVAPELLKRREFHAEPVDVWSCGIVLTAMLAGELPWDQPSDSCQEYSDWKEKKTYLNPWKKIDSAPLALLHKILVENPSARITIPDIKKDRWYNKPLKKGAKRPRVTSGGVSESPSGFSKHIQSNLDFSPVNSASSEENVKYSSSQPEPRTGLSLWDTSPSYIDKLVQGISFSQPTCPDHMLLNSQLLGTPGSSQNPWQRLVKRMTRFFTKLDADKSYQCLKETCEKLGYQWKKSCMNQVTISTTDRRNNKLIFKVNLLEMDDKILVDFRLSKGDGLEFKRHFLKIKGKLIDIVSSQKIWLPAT

Take `COc1cc(CNC2CC2)ccc1-c1cc(Nc2cnc(C#N)cn2)n[nH]1` [Example 91, 5-[[5-[4-[(cyclopropylamino)methyl]-2-methoxy-phenyl]-1H-pyrazol-3-yl]amino]pyrazine-2-carbonitrile]: the pIC50 in test [1] is 9.48. For the same compound, in test [2], the pIC50 was 6.39, the “10xLS” value was <100 nM and the “2xLS” value is <3 nM.
Regarding `COc1cc([C@@H]2CN(C)CCO2)ccc1-c1cc(Nc2cnc(C#N)cn2)n[nH]1` [Example 117, 5-[[5-[2-Methoxy-4-[(2R)-4-methylmorpholin-2-yl]phenyl]-1H-pyrazol-3-yl]amino]pyrazine-2-carbonitrile hydrochloride], the pIC50 in test [1] is 10.57. In test [2], the IC50 came out at 1890 nM, the “10xLS” value is recorded as 1000 nM and the “2xLS” value was determined as 10 nM.
For the compound `COc1cc(C2CCN(C(C)C)CC2)ccc1-c1cc(Nc2cnc(C#N)cn2)n[nH]1` [Example 61, 5-[[5-[4-(1-isopropyl-4-piperidyl)-2-methoxy-phenyl]-1H-pyrazol-3-yl]amino]pyrazine-2-carbonitrile], in test [1], the negative-log IC50 (pIC50) is 10.00. Also, in test [2], the pIC50 is 6.60, the “10xLS” value was 100 nM and the “2xLS” value came to 2 nM.
`CCN1CCCN(c2ccc(-c3cc(Nc4cnc(C#N)cn4)n[nH]3)c(OC)c2)CC1` [Example 83, 5-[[5-[4-(4-ethyl-1,4-diazepan-1-yl)-2-methoxy-phenyl]-1H-pyrazol-3-yl]amino]pyrazine-2-carbonitrile]: in test [1], the pIC50 is 9.96. Further, in test [2], the pIC50 was 6.97, the “10xLS” value was <100 nM and the “2xLS” value was <3 nM.
Regarding `COc1cc(N2CCNCC2)cc(OC)c1-c1cc(Nc2cnc(C#N)cn2)n[nH]1` [Example 121, 5-[[5-(2,6-dimethoxy-4-piperazin-1-yl-phenyl)-1H-pyrazol-3-yl]amino]pyrazine-2-carbonitrile], the pIC50 in test [1] is 9.82. Further, in test [2], the pIC50 was 6.75, the “10xLS” value was <100 nM and the “2xLS” value is 3 nM.
On the same counts, the results for `COc1cc(OC[C@@H]2CCCN2C(C)C)ccc1-c1cc(Nc2cnc(C#N)cn2)n[nH]1` [Example 129, 5-[[5-[4-[[(2S)— 1-isopropylpyrrolidin-2-yl]methoxy]-2-methoxy-phenyl]-1H-pyrazol-3-yl]amino]pyrazine-2-carbonitrile] are 10.34, 6.56, <100 nM and <3 nM.
On to `COc1cc(CN[C@@H](C)c2ccc(F)cc2)ccc1-c1cc(Nc2cnc(C#N)cn2)n[nH]1` [Example 6, 5-[5-(4-{[(S)-1-(4-fluoro-phenyl)-ethylamino]-methyl}-2-methoxy-phenyl)-1H-pyrazol-3-ylamino]-pyrazine-2-carbonitrile], for which, in test [1], the pIC50 is 10.01. Besides, in test [2], the pIC50 is 6.47, the “10xLS” value is on record as 300 nM and the “2xLS” value amounted to 30 nM.
As for `COc1cc(N2CCCN(C(C)C)CC2)ccc1-c1cc(Nc2cnc(C#N)cn2)n[nH]1` [Example 84, 5-[[5-[4-(4-isopropyl-1,4-diazepan-1-yl)-2-methoxy-phenyl]-1H-pyrazol-3-yl]amino]pyrazine-2-carbonitrile], the pIC50 in test [1] was 9.85. For the same compound, in test [2], the pIC50 is 7.21, the “10xLS” value is reported as <100 nM and the “2xLS” value was <3 nM.
Consider `COc1cc(NCCN2CCOCC2)ccc1-c1cc(Nc2cnc(C#N)cn2)n[nH]1` [Example 16, 5-[[5-[2-methoxy-4-(2-morpholinoethylamino)phenyl]-1H-pyrazol-3-yl]amino]pyrazine-2-carbonitrile], for which the pIC50 in test [1] was 10.07. Besides, in test [2], the pIC50 was 5.75, the “10xLS” value was 100 nM and the “2xLS” value is given as <3 nM.
On to `CCN1CCC(Cc2ccc(-c3cc(Nc4cnc(C#N)cn4)n[nH]3)c(OC)c2)CC1` [Example 143, 5-[[5-[4-[(1-Ethyl-4-piperidyl)methyl]-2-methoxy-phenyl]-1H-pyrazol-3-yl]amino]pyrazine-2-carbonitrile hydrochloride], for which the pIC50 in test [1] was 10.68. Further, in test [2], the IC50 turned out to be 820 nM, the “10xLS” value is reported as <300 nM and the “2xLS” value is <10 nM.
Take `COc1cc(CNCCN2CCOCC2)ccc1-c1cc(Nc2cnc(C#N)cn2)n[nH]1` [Example 9, 5-(5-{2-methoxy-4-[(2-morpholin-4-yl-ethylamino)-methyl]-phenyl}-1H-pyrazol-3-ylamino)-pyrazine-2-carbonitrile]: in test [1], the pIC50 was 10.11. Also, in test [2], the pIC50 was 6.64, the “10xLS” value amounted to 100 nM and the “2xLS” value is given as 3 nM.
Regarding `COc1cc(C2CCCNC2)ccc1-c1cc(Nc2cnc(C#N)cn2)n[nH]1` (stereo not shown) [Example 39, 5-[[5-[2-methoxy-4-(3-piperidyl)phenyl]-1H-pyrazol-3-yl]amino]pyrazine-2-carbonitrile], in test [1], the pIC50 was 9.74. Besides, in test [2], the pIC50 was 6.77, the “10xLS” value is recorded as 30 nM and the “2xLS” value is given as <3 nM.
Take `COc1cc(C2CCN(C)CC2)ccc1-c1cc(Nc2ccc(C#N)c(F)c2)n[nH]1` [Example 30, 2-fluoro-4-[[5-[2-methoxy-4-(1-methyl-4-piperidyl)phenyl]-1H-pyrazol-3-yl]amino]benzonitrile]: in test [1], the pIC50 was 7.77. In addition, in test [2], the pIC50 is < 5.52, the “10xLS” value is reported as >3000 nM and the “2xLS” value came out at 1000 nM.
As to `COc1cc(N2CCCN(C)CC2)ccc1-c1cc(Nc2cnc(C#N)cn2)n[nH]1` [Example 23, 5-[[5-[2-methoxy-4-(4-methyl-1,4-diazepan-1-yl)phenyl]-1H-pyrazol-3-yl]amino]pyrazine-2-carbonitrile], in test [1], the pIC50 was 9.92. Besides, in test [2], the pIC50 is 6.58, the “10xLS” value is reported as <100 nM and the “2xLS” value was <3 nM.
Consider `CCN1CCN(c2ccc(-c3cc(Nc4cnc(C#N)cn4)n[nH]3)c(OC)c2)C[C@H]1C` [Example 93, 5-[[5-[4-[(3R)-4-ethyl-3-methyl-piperazin-1-yl]-2-methoxy-phenyl]-1H-pyrazol-3-yl]amino]pyrazine-2-carbonitrile], for which the pIC50 in test [1] is 10.80. For the same compound, in test [2], the pIC50 was 7.00, the “10xLS” value is listed as <30 nM and the “2xLS” value is <3 nM.
Turning to `COc1cc(CN(C)CCN2CCOCC2)ccc1-c1cc(Nc2cnc(C#N)cn2)n[nH]1` [Example 15, 5-[[5-[2-methoxy-4-[[methyl(2-morpholinoethyl)amino]methyl]phenyl]-1H-pyrazol-3-yl]amino]pyrazine-2-carbonitrile], in test [1], the pIC50 is 9.52. In test [2], the pIC50 was 5.66, the “10xLS” value is on record as ~3000 nM and the “2xLS” value was ~5 nM.
The corresponding values for `COc1cc(NC2CCN(C)CC2)ccc1-c1cc(Nc2cnc(C#N)cn2)n[nH]1` [Example 110, 5-[[5-[2-methoxy-4-[(1-methyl-4-piperidyl)amino]phenyl]-1H-pyrazol-3-yl]amino]pyrazine-2-carbonitrile] are 11.16, 6.72, 100 nM and 3 nM.
As for `COc1cc(OC[C@H]2CCCN2C)ccc1-c1cc(Nc2cnc(C#N)cn2)n[nH]1` [Example 103, 5-[[5-[2-methoxy-4-[[(2R)-1-methylpyrrolidin-2-yl]methoxy]phenyl]-1H-pyrazol-3-yl]amino]pyrazine-2-carbonitrile hydrochloride], the pIC50 in test [1] is 9.96. In addition, in test [2], the IC50 amounted to 184 nM, the “10xLS” value turned out to be 300 nM and the “2xLS” value came to 3 nM.
Consider `COc1cc(NCC2CCOCC2)ccc1-c1cc(Nc2cnc(C#N)cn2)n[nH]1` [Example 74, 5-[[5-[2-methoxy-4-(tetrahydropyran-4-ylmethylamino)phenyl]-1H-pyrazol-3-yl]amino]pyrazine-2-carbonitrile], for which the pIC50 in test [1] was 9.46. Further, in test [2], the negative logarithm of the IC50 (pIC50) is 6.55, the “10xLS” value amounted to 100 nM and the “2xLS” value was 3 nM.
As for `COc1cc(N2CCN(C(C)C)[C@H](C)C2)ccc1-c1cc(Nc2cnc(C#N)cn2)n[nH]1` [Example 133, 5-[[5-[4-[(3R)-4-isopropyl-3-methyl-piperazin-1-yl]-2-methoxy-phenyl]-1H-pyrazol-3-yl]amino]pyrazine-2-carbonitrile], the pIC50 in test [1] was 9.92. Further, in test [2], the pIC50 was 6.86, the “10xLS” value is given as 30 nM and the “2xLS” value is listed as <3 nM.
On the same counts, the results for `COc1cc(O[C@@H]2CCN(C(C)C)C2)ccc1-c1cc(Nc2cnc(C#N)cn2)n[nH]1` [Example 95, 5-[[5-[4-[(3R)-1-isopropylpyrrolidin-3-yl]oxy-2-methoxy-phenyl]-1H-pyrazol-3-yl]amino]pyrazine-2-carbonitrile] are 9.82, 6.74, <100 nM and <3 nM.
Regarding `COc1cc(C2(F)CNC2)ccc1-c1cc(Nc2cnc(C#N)cn2)n[nH]1` [Example 77, 5-[[5-[4-(3-fluoroazetidin-3-yl)-2-methoxy-phenyl]-1H-pyrazol-3-yl]amino]pyrazine-2-carbonitrile], in test [1], the pIC50 is 9.85. In addition, in test [2], the pIC50 is 6.79, the “10xLS” value was <100 nM and the “2xLS” value is given as <3 nM.

For the origin of these results see patent US10010547B2 (CASCADIAN THERAPEUTICS, INC., priority 2014, dated 2018).
